From patent US20240308976A1, “COMPOUNDS THAT MEDIATE PROTEIN DEGRADATION AND USES THEREOF” (Monte Rosa Therapeutics, Inc., priority 2021, published 2024) come the findings set out here.

Bounds are passed on as bounds.

Sequence of CRBN-DDB1 (Q96SW2 whole entry): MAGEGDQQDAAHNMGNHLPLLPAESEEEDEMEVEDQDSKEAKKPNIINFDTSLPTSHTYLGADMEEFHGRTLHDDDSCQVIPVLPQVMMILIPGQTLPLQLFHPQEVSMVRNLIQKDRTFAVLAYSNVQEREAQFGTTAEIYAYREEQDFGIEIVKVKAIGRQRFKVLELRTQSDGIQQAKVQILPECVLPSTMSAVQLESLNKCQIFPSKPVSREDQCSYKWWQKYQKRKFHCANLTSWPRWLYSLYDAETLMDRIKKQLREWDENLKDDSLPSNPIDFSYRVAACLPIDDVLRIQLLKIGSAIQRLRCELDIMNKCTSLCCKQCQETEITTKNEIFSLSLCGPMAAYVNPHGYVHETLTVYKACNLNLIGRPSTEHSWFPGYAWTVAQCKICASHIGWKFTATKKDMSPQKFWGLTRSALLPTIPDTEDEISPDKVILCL
Sequence of CRBN-DDB1 (Q16531 whole entry partner): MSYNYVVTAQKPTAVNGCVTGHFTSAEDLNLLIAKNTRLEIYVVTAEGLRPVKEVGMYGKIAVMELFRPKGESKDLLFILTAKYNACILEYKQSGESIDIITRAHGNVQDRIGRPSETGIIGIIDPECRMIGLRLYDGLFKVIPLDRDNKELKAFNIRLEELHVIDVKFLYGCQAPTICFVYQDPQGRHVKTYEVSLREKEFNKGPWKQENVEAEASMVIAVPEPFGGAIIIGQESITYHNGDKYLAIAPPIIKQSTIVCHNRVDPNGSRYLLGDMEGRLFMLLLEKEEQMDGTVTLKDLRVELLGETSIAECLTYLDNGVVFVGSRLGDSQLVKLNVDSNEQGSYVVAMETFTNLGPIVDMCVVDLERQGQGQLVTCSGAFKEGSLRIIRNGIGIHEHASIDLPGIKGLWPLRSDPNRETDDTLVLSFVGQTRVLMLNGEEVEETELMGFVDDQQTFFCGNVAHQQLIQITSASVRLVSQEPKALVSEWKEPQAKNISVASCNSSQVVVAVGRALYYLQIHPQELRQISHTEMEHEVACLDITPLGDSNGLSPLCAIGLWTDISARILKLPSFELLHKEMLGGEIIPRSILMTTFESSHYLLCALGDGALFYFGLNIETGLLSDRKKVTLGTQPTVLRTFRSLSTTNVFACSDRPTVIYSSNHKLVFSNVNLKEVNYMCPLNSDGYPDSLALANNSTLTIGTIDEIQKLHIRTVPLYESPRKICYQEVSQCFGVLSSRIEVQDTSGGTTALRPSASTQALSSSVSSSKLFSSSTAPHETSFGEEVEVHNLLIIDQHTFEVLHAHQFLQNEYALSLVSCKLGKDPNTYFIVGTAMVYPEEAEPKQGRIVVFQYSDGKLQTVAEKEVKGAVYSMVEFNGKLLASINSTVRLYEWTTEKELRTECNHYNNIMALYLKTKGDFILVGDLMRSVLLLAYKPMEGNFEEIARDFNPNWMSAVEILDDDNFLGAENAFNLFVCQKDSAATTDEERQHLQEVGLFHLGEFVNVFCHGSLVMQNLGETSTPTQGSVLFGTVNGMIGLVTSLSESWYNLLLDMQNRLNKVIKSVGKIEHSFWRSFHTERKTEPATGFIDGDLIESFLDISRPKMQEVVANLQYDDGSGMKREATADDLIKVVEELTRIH

One assay concerns the target CRBN-DDB1 (Homo sapiens, UniProt Q96SW2). Description: Compound binding to CRBN by HTRF assay. Particulars: CRBN-DDB1 2.5 nM, Cy5-Thalidomide 100 nM, 30 min at ambient temperature; read-out: HTRF Class (Cereblon binding, HTRF IC50). On the procedure: Example 146: Compound Binding to CRBN by HTRF Assay
Compound activity was monitored in a Homogenous Time-Resolved Fluorescence (HTRF) assay using 1-[5-({2-[2-(2-{[2-(2,6-dioxopiperidin-3-yl)-1,3-dioxo-2,3-dihydro-1H-isoindol-4-yl]oxy}acetamido)ethoxy]ethyl}carbamoyl)pentyl]-3,3-dimethyl-2-[(1E,3E)-5-[(2E)-1,3,3-trimethyl-5-sulfo-2,3-dihydro-1H-indol-2-ylidene]penta-1,3-dien-1-yl]-3H-indol-1-ium-5-sulfonate as a fluorescent probe. Biochemical assays were conducted in Greiner white 384 well HiBase plates (Cat. No 784075-25) in 10 μL total volume. A one pot detection solution of CRBN-DDB1 (2.5 nM), Anti-His Terbium Cryptate Gold (1X, PerkinElmer Cat. #: 61HI2TLB), and Cy5-Thalidomide (100 nM, Tenova Cat.: T52461) was prepared in 20 mM HEPES, 20 mM NaCl, 0.2 mM TCEP, 0.2 mM EDTA, and 0.005% Tween20 was dispensed to each assay plate. Compounds were stored in dry, ambient temperatures at 10 mM. A 10-point, 1:3 dilution series was prepared from 10 mM stock concentrations in Echo-compatible LDV plates. 10 nL of each compound dilution series was dispensed into assays wells using an Echo 650 (Labcyte inc. USA). 10 nL of 10 mM Lenalidomide was transferred into the active-control wells for the assay and 10 nL of DMSO was transferred into the neutral-control wells. The assay was then allowed to incubate for 30 min at ambient temperature after transferring compound. Plate measurements were taken on a Pherastar FSX (BMG Labtech, Germany) using the HTRF Red filter (Ex. 337 nm, em1: 620 nm, em2: 665 nm) (Flashes: 50, Integration time: 60-400 us, Z-height: 10 mm, Ratio-multiplier: 10,000). The HTRF signal was then subsequently normalized to the neutral and active controls. Analysis and IC50 values were derived using KNIME analytics (KNIME Zurich) transformation and fitting within Collaborative Drug Discovery (Collaborative Drug Discovery USA). Ki was derived from the geometric mean of the IC50 values using the Cheng-Prustoff transformation.
(§1) In Table 2, each compound is assigned a class (HTRF class) indicating the ability for Cereblon binding by means of their HTRF IC50 values according to […]: A, B, C or D. According to the code, A represents an IC50 value of ≤100 nM, B represents an IC50 value>100 nM and ≤1000 nM, C represents an IC50 value>1000 nM. IF Class assigns each compound a code indicating the ability for GSPT1 degradation: A, B or C. According to the code, A represents a DC50 value of ≤30 nM, B represents a DC50 value>30 nM and ≤300 nM and C represents a DC50 value of >300 nM.
(In general: TR-FRET usually uses a lanthanide donor and a delayed reading to cut background.)
As for `Cc1ccc(NC(=O)NC2CN(c3cc(F)c(C4CCC(=O)NC4=O)c(F)c3)C2)cc1Cl` (stereo not drawn) [Compound 1, 1-(3-chloro-4-methylphenyl)-3-(1-(4-(2,6-dioxopiperidin-3-yl)-3,5-difluorophenyl)azetidin-3-yl)urea], the IC50 is 100 to 1000 nM.

As for `Cc1ccc(NC(=O)OC2CN(c3cc(F)c(C4CCC(=O)NC4=O)c(F)c3)C2)cc1Cl` (stereo not drawn) [Compound 2, 1-(4-(2,6-dioxopiperidin-3-yl)-3,5-difluorophenyl)azetidin-3-yl(3-chloro-4-methylphenyl) carbamate], the IC50 is 100 to 1000 nM.

For another assay, the target named is T1, GSPT1 (Homo sapiens, UniProt P15170+Q96SW2).
T1 construct: CAL-51 cells were purchased from DSMZ (cat. Number ACC302); host or cells: CAL-51
T1 sequence (P15170 whole entry): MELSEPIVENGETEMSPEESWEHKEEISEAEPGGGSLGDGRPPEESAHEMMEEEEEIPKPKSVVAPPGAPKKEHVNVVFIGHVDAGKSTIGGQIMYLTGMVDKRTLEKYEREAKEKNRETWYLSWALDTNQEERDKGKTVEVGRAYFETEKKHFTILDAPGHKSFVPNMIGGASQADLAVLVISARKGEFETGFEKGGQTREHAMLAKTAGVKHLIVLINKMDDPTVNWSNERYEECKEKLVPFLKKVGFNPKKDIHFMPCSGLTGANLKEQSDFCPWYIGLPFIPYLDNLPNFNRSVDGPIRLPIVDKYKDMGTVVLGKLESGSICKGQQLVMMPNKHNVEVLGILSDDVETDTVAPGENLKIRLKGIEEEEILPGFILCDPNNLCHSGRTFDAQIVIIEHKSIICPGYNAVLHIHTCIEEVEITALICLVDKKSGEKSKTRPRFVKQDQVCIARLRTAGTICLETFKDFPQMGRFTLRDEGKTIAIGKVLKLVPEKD
T1 sequence (Q96SW2 whole entry): as the sequence (Q96SW2 whole entry) above
T1 sequence (Q16531 2-1140 partner limits assumed): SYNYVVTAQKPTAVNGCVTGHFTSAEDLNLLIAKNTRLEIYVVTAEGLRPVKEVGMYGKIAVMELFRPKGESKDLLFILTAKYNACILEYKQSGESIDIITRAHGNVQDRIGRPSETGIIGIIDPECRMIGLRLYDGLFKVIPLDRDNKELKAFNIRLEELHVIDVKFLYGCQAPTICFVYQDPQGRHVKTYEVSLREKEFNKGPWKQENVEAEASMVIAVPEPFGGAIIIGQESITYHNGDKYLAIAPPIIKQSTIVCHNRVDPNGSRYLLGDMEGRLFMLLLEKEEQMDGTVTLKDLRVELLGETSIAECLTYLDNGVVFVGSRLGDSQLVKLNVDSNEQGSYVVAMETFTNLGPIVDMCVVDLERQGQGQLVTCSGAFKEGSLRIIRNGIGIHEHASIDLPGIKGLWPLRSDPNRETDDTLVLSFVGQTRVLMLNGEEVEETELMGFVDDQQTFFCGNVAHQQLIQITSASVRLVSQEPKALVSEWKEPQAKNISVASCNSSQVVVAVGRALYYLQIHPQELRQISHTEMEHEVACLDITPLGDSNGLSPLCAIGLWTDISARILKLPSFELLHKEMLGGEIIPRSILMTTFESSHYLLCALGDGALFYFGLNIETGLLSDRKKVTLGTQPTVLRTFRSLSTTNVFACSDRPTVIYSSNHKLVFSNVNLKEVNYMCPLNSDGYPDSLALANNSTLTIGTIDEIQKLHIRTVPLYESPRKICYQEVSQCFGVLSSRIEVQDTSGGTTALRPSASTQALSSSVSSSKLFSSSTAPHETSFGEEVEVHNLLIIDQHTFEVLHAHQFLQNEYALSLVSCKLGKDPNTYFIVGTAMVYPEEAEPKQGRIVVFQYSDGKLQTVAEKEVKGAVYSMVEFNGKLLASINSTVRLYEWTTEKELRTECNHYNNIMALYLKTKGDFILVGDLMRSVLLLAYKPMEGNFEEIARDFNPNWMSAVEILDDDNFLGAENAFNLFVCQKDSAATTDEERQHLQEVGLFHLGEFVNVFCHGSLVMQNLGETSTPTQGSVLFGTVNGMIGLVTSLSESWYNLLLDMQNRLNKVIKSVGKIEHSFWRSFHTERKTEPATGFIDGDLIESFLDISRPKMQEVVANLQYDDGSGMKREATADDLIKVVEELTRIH
As to the kind of experiment: Immunofluorescence assay for activity to degrade GSPT1 in CAL-51 cells. Particulars: 6 h treatment, read-out: IF Class (GSPT1 degradation, DC50). In kind it is cell-based. How it is done: Example 147: Compound Activity by Immunofluorescence Assay
The representative compounds were tested in an immunofluorescence assay for their activity to degrade GSPT1. CAL-51 cells were purchased from DSMZ (cat. Number ACC302), sub-cultured in 90% Dulbecco's MEM (4.5 g/L glucose, Gibco 11965)+10% heat inactivated FBS (BioConcept, 2-01F136I) and incubated at 37° C., 5% CO2. For the assay imaging microtiter plate Cell Carrier 96 Ultra (Perkin Elmer 6055302) were pre-coated with Fibronectin (Sigma F085, 30 μL at 0.2 μg/mL) in PBS (100 μL, Gibco 14190) for 45 min at room temperature, rinsed with PBS and CAL-51 cells (30K cells/well) were plated and let to adhere overnight. Cells were treated with compounds typically using a serial dilution ranging from 30 μM to 0.1 nM for 6 h. Compounds were stored at 10 mM DMSO stocks. Vehicle (DMSO), positive (CC-885, 10 μM) and rescue controls (positive control plus 0.2 μM bortezomib) were also included at this stage. Cells were subsequently rinsed with PBS and fixed in 10% Formalin solution (50 μL, Sigma HT5011)) for 20 mins at room temperature. Following three consecutive PBS washes (100 μL), cells were permeabilized in 0.1% Triton X-100 in PBS (Sigma 93443, 50 μL) for 15 min. at room temperature. Following three further PBS washes, 50 μL blocking buffer (1% BSA, Sigma A4503, in PBS) was added for 45 min for signal-to noise reduction. Primary antibody (human GSPT1, Sigma HPA052488) was diluted in blocking buffer (dil.1/300, 35 μL/well) and incubated with the cells overnight at 4° C. After three PBS washes, Alexa-fluor 488 coupled secondary antibodies (Invitrogen, A32731, dil. 1/1000), Alexa-fluor 647-Phalloidin (Invitrogen, A22287, dil. 1/200) and DAPI (Thermo, #62248, dil. 1/1000) were diluted in blocking buffer and incubated with the samples for 2 h at room temperature. After three final PBS washes, samples were conserved in 100 μL PBS in the dark, until measurement. Image acquisition was performed on the Operetta High-Content Imager (Perkin-Elmer). Fluorescence intensity of […] (GSPT1), Alexa-Fluor 647 (Actin) and DAPI (Nucleus) were measured. For the determination of GSPT1 DC50 values, a custom algorithm implemented in the PerkinElmer image analysis software Harmony-Acapella® was developed. After user-defined setting of adjustment parameters, the analysis was run identically without human intervention for all image fields. DAPI staining of the nuclei was used to determine the location of cells using standard nuclei detection modules. Segmentation artifacts were removed by threshold-based filters for area, roundness and intensity. The outline of the cells was determined analogously from the sum of the normalized, smoothed DAPI and Actin channel, starting from each nucleus. The Alexa-Fluor 488 (GSPT1) signal intensity in each cell was finally measured, in order to obtain a Mean intensity per cell. GSPT1 degradation (DC50) was calculated after normalization to controls and data import in CDD vault Database, using non-linear regression.
as §1
With `Cc1ccc(NC(=O)NC2CN(c3cc(F)c(C4CCC(=O)NC4=O)c(F)c3)C2)cc1Cl` (stereo not drawn) [Compound 1, 1-(3-chloro-4-methylphenyl)-3-(1-(4-(2,6-dioxopiperidin-3-yl)-3,5-difluorophenyl)azetidin-3-yl)urea], the DC50 is no more than 30 nM.

Regarding `Cc1ccc(NC(=O)OC2CN(c3cc(F)c(C4CCC(=O)NC4=O)c(F)c3)C2)cc1Cl` (stereo not drawn) [Compound 2, 1-(4-(2,6-dioxopiperidin-3-yl)-3,5-difluorophenyl)azetidin-3-yl(3-chloro-4-methylphenyl) carbamate], the DC50 is no more than 30 nM.

With `O=C1CCC(c2c(F)cc(N3CC(OC(=O)NC45CCC(CC4)CC5)C3)cc2F)C(=O)N1` (stereo not drawn) [Compound 98, 1-(4-(2,6-dioxopiperidin-3-yl)-3,5-difluorophenyl)azetidin-3-yl bicyclo[2.2.2]octan-1-ylcarbamate], the DC50 is no more than 30 nM.

`O=C1CCC(c2c(F)cc(N3CC(OC(=O)N4CC5(COC5)C4)C3)cc2F)C(=O)N1` (stereo not drawn) [Compound 105, 1-(4-(2,6-dioxopiperidin-3-yl)-3,5-difluorophenyl)azetidin-3-yl 2-oxa-6-azaspiro[3.3]heptane-6-carboxylate]: the DC50 was greater than 300 nM.

In the case of `O=C1CCC(c2c(F)cc(N3CC(OC(=O)NCC45C[C@H]6C[C@@H](C4)C[C@@H](C5)C6)C3)cc2F)C(=O)N1` (stereo partly drawn) [Compound 106, 1-(4-(2,6-dioxopiperidin-3-yl)-3,5-difluorophenyl)azetidin-3-yl((3R,5R,7R)-adamantan-1-ylmethyl) carbamate], the DC50 was no more than 30 nM.

Turning to `O=C1CCC(c2c(F)cc(N3CC(OC(=O)NC4[C@H]5C[C@@H]6C[C@@H](C[C@H]4C6)C5)C3)cc2F)C(=O)N1` (stereo partly drawn) [Compound 107, 1-(4-(2,6-dioxopiperidin-3-yl)-3,5-difluorophenyl)azetidin-3-yl (1R,3S,5R,7R)-adamantan-2-ylcarbamate], the DC50 fell in the range of 30 to 300 nM.

As to `COCC(COC)NC(=O)OC1CN(c2cc(F)c(C3CCC(=O)NC3=O)c(F)c2)C1` (stereo not drawn) [Compound 108, 1-(4-(2,6-dioxopiperidin-3-yl)-3,5-difluorophenyl)azetidin-3-yl (1,3-dimethoxypropan-2-yl)carbamate], the DC50 is greater than 300 nM.

`O=C1CCC(c2c(F)cc(N3CC(OC(=O)NCCC(F)(F)F)C3)cc2F)C(=O)N1` (stereo not drawn) [Compound 109, 1-(4-(2,6-dioxopiperidin-3-yl)-3,5-difluorophenyl)azetidin-3-yl (3,3,3-trifluoropropyl)carbamate]: the DC50 is greater than 300 nM.

For `O=C1CCC(c2c(F)cc(N3CC(NC(=O)N[C@@H]4CCC(F)(F)C4)C3)cc2F)C(=O)N1` (stereo partly drawn) [Compound 111, 1-((R)-3,3-difluorocyclopentyl)-3-(1-(4-(2,6-dioxopiperidin-3-yl)-3,5-difluorophenyl)azetidin-3-yl)urea], the DC50 was greater than 300 nM.

As for `O=C1CCC(c2c(F)cc(N3CC(OC(=O)NC45CCC(C4)C5)C3)cc2F)C(=O)N1` (stereo not drawn) [Compound 112, 1-(4-(2,6-dioxopiperidin-3-yl)-3,5-difluorophenyl)azetidin-3-ylbicyclo[2.1.1]hexan-1-ylcarbamate], the DC50 was in the range of 30 to 300 nM.

`CN1CCC(CNC(=O)OC2CN(c3cc(F)c(C4CCC(=O)NC4=O)c(F)c3)C2)CC1` (stereo not drawn) [Compound 114, 1-(4-(2,6-dioxopiperidin-3-yl)-3,5-difluorophenyl)azetidin-3-yl((1-methylpiperidin-4-yl)methyl)carbamate]: the DC50 was greater than 300 nM.

For `C[C@H](NC(=O)OC1CN(c2cc(F)c(C3CCC(=O)NC3=O)c(F)c2)C1)C1CCCCC1` (stereo partly drawn) [Compound 115, 1-(4-(2,6-dioxopiperidin-3-yl)-3,5-difluorophenyl)azetidin-3-yl((S)-1-cyclohexylethyl)carbamate], the 50% degradation concentration (DC50) is no more than 30 nM.

For `O=C1CCC(c2c(F)cc(N3CC(OC(=O)NC4CCSCC4)C3)cc2F)C(=O)N1` (stereo not drawn) [Compound 116, 1-(4-(2,6-dioxopiperidin-3-yl)-3,5-difluorophenyl)azetidin-3-yl(tetrahydro-2H-thiopyran-4-yl)carbamate], the DC50 was no more than 30 nM.

`O=C1CCC(c2c(F)cc(N3CC(OC(=O)NCC4CCOCC4)C3)cc2F)C(=O)N1` (stereo not drawn) [Compound 117, 1-(4-(2,6-dioxopiperidin-3-yl)-3,5-difluorophenyl)azetidin-3-yl ((tetrahydro-2H-pyran-4-yl)methyl)carbamate]: the DC50 was greater than 300 nM.

As for `CSCCNC(=O)OC1CN(c2cc(F)c(C3CCC(=O)NC3=O)c(F)c2)C1` (stereo not drawn) [Compound 118, 1-(4-(2,6-dioxopiperidin-3-yl)-3,5-difluorophenyl)azetidin-3-yl(2-(methylthio)ethyl)carbamate], the DC50 is greater than 300 nM.

For `CO[C@H]1CC[C@@H](NC(=O)OC2CN(c3cc(F)c(C4CCC(=O)NC4=O)c(F)c3)C2)CC1` (stereo partly drawn) [Compound 119, 1-(4-(2,6-dioxopiperidin-3-yl)-3,5-difluorophenyl) azetidin-3-yl ((1S,4S)-4-methoxycyclohexyl) carbamate], the DC50 is greater than 300 nM.

On to `CC(C)N1CCC(NC(=O)NC2CN(c3cc(F)c(C4CCC(=O)NC4=O)c(F)c3)C2)C1` (stereo not drawn) [Compound 120, 1-(1-(4-(2,6-dioxopiperidin-3-yl)-3,5-difluorophenyl)azetidin-3-yl)-3-(1-isopropylpyrrolidin-3-yl) urea], for which the DC50 is greater than 300 nM.

With `CN1CCC(NC(=O)NC2CN(c3cc(F)c(C4CCC(=O)NC4=O)c(F)c3)C2)C1` (stereo not drawn) [Compound 121, 1-(1-(4-(2,6-dioxopiperidin-3-yl)-3,5-difluorophenyl)azetidin-3-yl)-3-(1-methylpyrrolidin-3-yl)urea], the DC50 is greater than 300 nM.

On to `CCC(C)CNC(=O)OC1CN(c2cc(F)c(C3CCC(=O)NC3=O)c(F)c2)C1` (stereo not drawn) [Compound 122, 1-(4-(2,6-dioxopiperidin-3-yl)-3,5-difluorophenyl) azetidin-3-yl (2-methylbutyl)carbamate], for which the DC50 is 30 to 300 nM.

Usually IC50 stands for the point on the concentration scale where inhibition reaches its midpoint. The term DC50 denotes the midpoint of the concentration-degradation curve.
